What was measured:
[1] = tested on: p53-deficient (HT29) cell line; test: CTG cell proliferation assay, HT29 cell line; assay type: cell-based; conditions: for IC50: Homo sapiens, 72 h
Procedure: (§1) Each CTG cell proliferation assay included the steps as follows: • 1) An H460 or HT29 cell suspension was added to a 96-well plate at 100 μL per well so that each well contained 2000 or 10000 cells. • 2) The cells were incubated overnight at 37° C. in an incubator with 5% CO2. • 3) Treatment with Compounds
(§2) Combination therapy: 1 μL of adavosertib (at four concentrations), AZD7762 (at four concentrations), palbociclib (at four concentrations) or ceralasertib (at three concentrations) was added to each well and shaken gently until homogeneous mixing.
(§3) 7) Chemiluminescence was read for 1000 ms on a multimode microplate reader. • 8) IC50 (half-maximal inhibitory concentration) values of the compounds were calculated using the GraphPad Prism 5 software. 1.

[2] = tested on: wild-type p53-expressing (H460) cell line; test: CTG cell proliferation assay, H460 cell line; assay type: cell-based; conditions: for IC50: Homo sapiens, 72 h
Procedure: as §1, §2, §3

[3] = HT29 (p53-deficient), various concentrations, also low
[4] = H460 (wild-type p53), all concentrations
[5] = H460 (wild-type p53), both drugs at low concentrations

O=[N+]([O-])c1ccc(C(OP(=O)(N2CC2)N2CC2)C(F)(F)F)cc1Oc1ccc(-c2ccc(F)cc2)c(F)c1 (stereo not shown) [AST]
additive cytotoxic effect in combination therapy with palbociclib ([1]; HT29 (p53-deficient), drugs at low concentrations): certain additive cytotoxic effects | additive cytotoxic effect in combination therapy with ceralasertib ([1]; HT29 (p53-deficient), various concentrations): significant additive cytotoxic effects | additive cytotoxic effect in combination therapy with AZD7762 [1, 3]: significant additive cytotoxic effects | additive cytotoxic effect in combination therapy with adavosertib [1, 3]: significant additive cytotoxic effects | additive cytotoxic effect in combination therapy with palbociclib [1, 3]: significant additive cytotoxic effects | Ratio single/combo ([1]; HT29, IC50 monotherapy / IC50 with 100 nM AZD7762): 95.61 | Ratio single/combo ([1]; HT29, IC50 monotherapy / IC50 with 100 nM adavosertib): 44.97 | Ratio single/combo ([1]; HT29, IC50 monotherapy / IC50 with 130 nM AZD7762): 105.70 | Ratio single/combo ([1]; HT29, IC50 monotherapy / IC50 with 130 nM adavosertib): 95.54 | Ratio single/combo ([1]; HT29, IC50 monotherapy / IC50 with 160 nM AZD7762): 107.78 | Ratio single/combo ([1]; HT29, IC50 monotherapy / IC50 with 160 nM adavosertib): 114.24 | IC50 ([1]; HT-29, 72 h, HT29, monotherapy): 1370 nM | IC50 ([1]; HT-29, HT29, with 50 nM palbociclib (2 h pretreatment)): 1060 nM | IC50 ([1]; HT-29, HT29, with 100 nM AZD7762 (2 h pretreatment)): 14.3 nM | IC50 ([1]; HT-29, HT29, with 100 nM adavosertib (2 h pretreatment)): 30.5 nM | IC50 ([1]; HT-29, HT29, with 130 nM AZD7762 (2 h pretreatment)): 13 nM | IC50 ([1]; HT-29, HT29, with 130 nM adavosertib (2 h pretreatment)): 14.4 nM | IC50 ([1]; HT-29, HT29, with 160 nM AZD7762 (2 h pretreatment)): 12.7 nM | IC50 ([1]; HT-29, HT29, with 160 nM adavosertib (2 h pretreatment)): 12 nM | IC50 ([1]; HT-29, HT29, with 1000 nM palbociclib (2 h pretreatment)): 1740 nM | IC50 ([1]; HT-29, HT29, with 5000 nM palbociclib (2 h pretreatment)): 1570 nM | additive cytotoxic effect in combination therapy with AZD7762 ([2]; H460 (wild-type p53), AZD7762 160 nM): certain additive cytotoxic effects | additive cytotoxic effect in combination therapy with adavosertib [2, 4]: did not exhibit any additive toxic effects | additive cytotoxic effect in combination therapy with palbociclib [2, 4]: did not exhibit any significant additive cytotoxic effects | additive cytotoxic effect in combination therapy with AZD7762 [2, 5]: not significant | additive cytotoxic effect in combination therapy with adavosertib [2, 5]: not significant | additive cytotoxic effect in combination therapy with ceralasertib [2, 5]: not significant | additive cytotoxic effect in combination therapy with AZD7762 ([2]; H460 (wild-type p53), medium and high concentrations): certain additive cytotoxic effects | additive cytotoxic effect in combination therapy with ceralasertib ([2]; H460 (wild-type p53), medium or high concentration): certain additive cytotoxic effects | additive cytotoxic effect in combination therapy with adavosertib ([2]; H460 (wild-type p53), medium or high concentrations): certain additive cytotoxic effects | additive cytotoxic effect in combination therapy with AZD7762 ([2]; H460 (wild-type p53), other concentrations than 160 nM AZD7762): did not exhibit any additive cytotoxic effects | Ratio single/combo ([2]; H460, IC50 monotherapy / IC50 with 0.5 nM AZD7762): 1.20 | Ratio single/combo ([2]; H460, IC50 monotherapy / IC50 with 0.5 nM adavosertib): 1.24 | Ratio single/combo ([2]; H460, IC50 monotherapy / IC50 with 6.4 nM AZD7762): 1.00 | Ratio single/combo ([2]; H460, IC50 monotherapy / IC50 with 6.4 nM adavosertib): 0.90 | Ratio single/combo ([2]; H460, IC50 monotherapy / IC50 with 160 nM AZD7762): 3.81 | Ratio single/combo ([2]; H460, IC50 monotherapy / IC50 with 160 nM adavosertib): 1.19 | Ratio single/combo ([2]; H460, IC50 monotherapy / IC50 with 800 nM adavosertib): 1.41 | Ratio combo/single ([2]; H460, IC50 with 0.05 nM palbociclib / IC50 monotherapy): 1.08 | Ratio combo/single ([2]; H460, IC50 with 0.64 nM palbociclib / IC50 monotherapy): 1.35 | Ratio combo/single ([2]; H460, IC50 with 400 nM palbociclib / IC50 monotherapy): 2.55 | IC50 ([2]; NCI-H460, 72 h, H460, monotherapy): 4.08 nM | IC50 ([2]; NCI-H460, H460, with 0.05 nM palbociclib (2 h pretreatment)): 4.39 nM | IC50 ([2]; NCI-H460, H460, with 0.5 nM AZD7762 (2 h pretreatment)): 3.4 nM | IC50 ([2]; NCI-H460, H460, with 0.5 nM adavosertib (2 h pretreatment)): 3.29 nM | IC50 ([2]; NCI-H460, H460, with 0.64 nM palbociclib (2 h pretreatment)): 5.5 nM | IC50 ([2]; NCI-H460, H460, with 6.4 nM AZD7762 (2 h pretreatment)): 4.08 nM | IC50 ([2]; NCI-H460, H460, with 6.4 nM adavosertib (2 h pretreatment)): 4.53 nM | IC50 ([2]; NCI-H460, H460, with 160 nM AZD7762 (2 h pretreatment)): 1.07 nM | IC50 ([2]; NCI-H460, H460, with 160 nM adavosertib (2 h pretreatment)): 3.44 nM | IC50 ([2]; NCI-H460, H460, with 400 nM palbociclib (2 h pretreatment)): 10.4 nM | IC50 ([2]; NCI-H460, H460, with 800 nM adavosertib (2 h pretreatment)): 2.89 nM
